Molecules are shown by their SMILES. Read-outs that look alike come from different tables or passages of the source. Bounds are passed on as bounds.

The text below walks through data of patent publication US20220073495A1 (priority 2020, published 2022).

For one series, the system named is A549 cells. The note with it: human.
Another series deals with A/WSN/33. The series is described as follows: microbe, parasite or virus in culture. It counts as cell-based, influenza virus.
Another series can be described thus: in vitro. The note with it: human.
Setting [1] is: unidentified influenza virus, WSN, A549, 24 h, read-out: WSN IC50, A549 cells, A/WSN/33 MOI 0.01, 24 h post infection, NP-positive cells.
[2] abbreviates: unidentified influenza virus, WSN, A549, 24 h, read-out: WSN IC90, A549 cells, A/WSN/33 MOI 0.01, 24 h post infection, NP-positive cells.

`Cn1c(SCC(=O)Nc2ccc(Br)cn2)nc2ccccc21` [Compound 1]: in the series on A549 cells, the “24 h MTT CC10” value amounted to 1.417 µM. Moreover, the IC50 in the series with A/WSN/33 (setting [1]) came out at 1.89 µM. The IC90 with A/WSN/33 (setting [2]) amounted to 12.1 µM. Moreover, in “in vitro”, the CC50 was over 50 µM.
For the compound `Cc1cccc2[nH]c(SCC(=O)Nc3ccc(Br)cn3)nc12` [Compound 3], the “24 h MTT CC10” value in the series on A549 cells amounted to 0.683 µM. In addition, in the series with A/WSN/33 (setting [1]), the IC50 worked out at 4.94 µM. Besides, the IC90 with A/WSN/33 (setting [2]) is 10 µM. In the series “in vitro”, the CC50 is over 50 µM.
On to `O=C(CSc1nc2ccccc2[nH]1)Nc1ccc(Br)cc1` [Compound 4], for which, in the series with A549 cells, the “24 h MTT CC10” value was over 50 µM. Moreover, the IC50 in the series on A/WSN/33 (setting [1]) is over 50 µM. In addition, in the series with A/WSN/33 (setting [2]), the IC90 was over 50 µM. The same compound came in with a CC50 in the series “in vitro” of over 50 µM.
In the case of `NC(=O)CSc1nc2ccccc2[nH]1` [Compound 5], in the series with A549 cells, the “24 h MTT CC10” value is over 50 µM. Also, the IC50 in the series with A/WSN/33 (setting [1]) is over 50 µM. In addition, the IC90 in the series with A/WSN/33 (setting [2]) is over 50 µM. In the series “in vitro”, this compound had a CC50 of over 50 µM.
As to `O=C(CS(=O)(=O)c1nc2ccccc2[nH]1)Nc1ccc(Br)cn1` [Compound 6], the “24 h MTT CC10” value in the series with A549 cells worked out at 23.361 µM. Besides, the IC50 with A/WSN/33 (setting [1]) came to 22.6 µM. The IC90 in the series with A/WSN/33 (setting [2]) is over 50 µM. Also, the CC50 in the series “in vitro” was over 50 µM.
Regarding `O=C(C[S+]([O-])c1nc2ccccc2[nH]1)Nc1ccc(Br)cn1` (centres unmarked) [Compound 7], the “24 h MTT CC10” value with A549 cells amounted to 31.074 µM. For the same compound, the IC50 in the series with A/WSN/33 (setting [1]) worked out at 11.9 µM. For the same compound, in the series with A/WSN/33 (setting [2]), the IC90 was over 50 µM. The CC50 in the series “in vitro” was over 50 µM.
On to `O=C(CSc1nc2ccccc2[nH]1)NCc1ccccn1` [Compound 8], for which the “24 h MTT CC10” value with A549 cells was over 50 µM. In the series on A/WSN/33 (setting [1]), the IC50 was over 50 µM. Also, in the series on A/WSN/33 (setting [2]), the IC90 was over 50 µM. The same compound came in with a CC50 in the series “in vitro” of over 50 µM.
Turning to `O=C(CSc1nc2ccccc2[nH]1)NCc1ccccc1` [Compound 9], the “24 h MTT CC10” value with A549 cells is over 50 µM. Moreover, the IC50 in the series on A/WSN/33 (setting [1]) is over 50 µM. In the series on A/WSN/33 (setting [2]), the IC90 is over 50 µM. Moreover, the CC50 in the series “in vitro” was over 50 µM.
As to `O=C(CSc1nc2ccccc2[nH]1)NC1CCCCC1` [Compound 10], the “24 h MTT CC10” value in the series with A549 cells was over 50 µM. For the same compound, the IC50 in the series with A/WSN/33 (setting [1]) was over 50 µM. For the same compound, the IC90 with A/WSN/33 (setting [2]) is over 50 µM. In “in vitro”, this compound registered a CC50 of over 50 µM.
As to `O=C(CSc1nc2ccccc2[nH]1)Nc1ccccn1` [Compound 11], the “24 h MTT CC10” value with A549 cells is over 50 µM. Also, the IC50 in the series on A/WSN/33 (setting [1]) is over 50 µM. In the series with A/WSN/33 (setting [2]), the IC90 is over 50 µM. The compound also had a CC50 in “in vitro” of over 50 µM.
On to `CC(Sc1nc2ccccc2[nH]1)C(=O)Nc1ccc(Br)cn1` (centres unmarked) [Compound 12], for which the “24 h MTT CC10” value with A549 cells was over 50 µM. Further, the IC50 in the series on A/WSN/33 (setting [1]) was over 50 µM. The IC90 with A/WSN/33 (setting [2]) was over 50 µM. Moreover, the CC50 in “in vitro” was over 50 µM.
Regarding `COc1ccc(C2C(CC(C)C(=O)Nc3ccc(Br)cn3)=Cc3ccccc32)cc1` (centres unmarked) [Compound 14], in the series on A549 cells, the “24 h MTT CC10” value stood at 15.941 µM and the CC50 was over 50 µM. In addition, the IC50 in the series on A/WSN/33 (setting [1]) is over 50 µM. The IC90 with A/WSN/33 (setting [2]) is over 50 µM.
Take `Cc1ccc(NC(=O)CCc2nc3ccccc3o2)nc1` [Compound 15]: in the series on A549 cells, the “24 h MTT CC10” value is over 50 µM and the CC50 was over 50 µM. The IC50 in the series with A/WSN/33 (setting [1]) amounted to 30.7 µM. Moreover, the IC90 in the series with A/WSN/33 (setting [2]) was over 50 µM.
On to `Cc1ccc(NC(=O)CCC2=Nc3ccccc3C2)nc1` [Compound 16], for which, in the series with A549 cells, the “24 h MTT CC10” value turned out to be 7.382 µM and the CC50 is over 50 µM. In addition, in the series on A/WSN/33 (setting [1]), the IC50 was found to be 30.9 µM. Moreover, in the series with A/WSN/33 (setting [2]), the IC90 was over 50 µM.
In the case of `Brc1ccc(CSc2nc3ccccc3[nH]2)cc1` [Compound 17], the “24 h MTT CC10” value in the series with A549 cells was determined as 19.818 µM. In the series on A/WSN/33 (setting [1]), the IC50 is over 50 µM. Also, the IC90 in the series with A/WSN/33 (setting [2]) was over 50 µM. In “in vitro”, this compound yielded a CC50 of over 50 µM.
For the compound `Cc1ccc(NC(=O)CSc2nc3ccccc3[nH]2)nc1` [Compound 24], in the series with A549 cells, the “24 h MTT CC10” value was determined as 5.552 µM and the CC50 is over 50 µM. The IC50 in the series with A/WSN/33 (read-out: WSN IC50, A549 cells, A/WSN/33 MOI 0.01, 24 h post infection, NP-positive cells) worked out at 8.7 µM. Also, the IC90 in the series on A/WSN/33 (read-out: WSN IC90, A549 cells, A/WSN/33 MOI 0.01, 24 h post infection, NP-positive cells) worked out at 24.5 µM.
Turning to `Cc1ccc2[nH]c(SCC(=O)Nc3ccc(Br)cn3)nc2c1` [Compound 26], in the series on A549 cells, the “24 h MTT CC10” value stood at 6.797 µM and the CC50 was found to be 49.7 µM. Also, the IC50 in the series with A/WSN/33 (setting [1]) worked out at 25.5 µM. Also, the IC90 in the series with A/WSN/33 (setting [2]) is over 50 µM.
